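Where inhibition never reached the appropriate level, the endpoint shown equals the highest concentration tested. Otherwise, values were interpolated linearly from a five-concentration, 48-hour dose response in 96-well plates. Here, GI50 denotes the concentration required for 50% inhibition of growth. TGI marks complete inhibition of growth.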
What was measured:
Experiment in all cases: NCI anticancer screen, dose series, 48 h
A498 renal = system: A498 renal
A549 NSCLC = system: A549 NSCLC
CCRF-CEM leukemia = system: CCRF-CEM leukemia
HCT-116 colon = system: HCT-116 colon
HCT-15 colon = system: HCT-15 colon
K-562 leukemia = system: K-562 leukemia
MOLT-4 leukemia = system: MOLT-4 leukemia
OVCAR-4 ovarian = system: OVCAR-4 ovarian
SK-MEL-28 melanoma = system: SK-MEL-28 melanoma
TK-10 renal = system: TK-10 renal

SMILES	GI50 (A498 renal)	TGI (A498 renal)	GI50 (A549 NSCLC)	TGI (A549 NSCLC)	GI50 (CCRF-CEM leukemia)	TGI (CCRF-CEM leukemia)	GI50 (HCT-116 colon)	TGI (HCT-116 colon)	GI50 (HCT-15 colon)	TGI (HCT-15 colon)	GI50 (K-562 leukemia)	TGI (K-562 leukemia)	GI50 (MOLT-4 leukemia)	TGI (MOLT-4 leukemia)	GI50 (OVCAR-4 ovarian)	TGI (OVCAR-4 ovarian)	GI50 (SK-MEL-28 melanoma)	TGI (SK-MEL-28 melanoma)	GI50 (TK-10 renal)	TGI (TK-10 renal)
CC1(C)N=C(N)N=C(N)N1c1cccc(OCCOc2cccc([N+](=O)[O-])c2)c1	> 67.7 µM	> 100 µM	0.561 µM	> 100 µM	1.23 µM	> 100 µM	0.777 µM	> 100 µM	> 100 µM	> 100 µM	2.1 µM	> 100 µM	2.45 µM	> 100 µM	14.4 µM	> 100 µM	7.86 µM	> 100 µM	66 µM	> 100 µM
c1ccc(NCCSc2nc3ccccc3s2)cc1		> 100 µM		> 100 µM		31.7 µM		> 100 µM		43 µM		> 100 µM		82.4 µM		> 100 µM		> 100 µM		77.4 µM
COc1cc(-c2nnc3n2NC=C(C(=O)O)S3)cc(OC)c1OC		> 100 µM		> 100 µM		> 67.5 µM		> 68.8 µM		> 67.5 µM		> 63 µM		> 100 µM		> 87.5 µM		> 100 µM		> 100 µM
Cc1ccc2c(c1-c1ccccc1)C(=O)OC2		> 100 µM		> 100 µM		> 100 µM		> 100 µM		> 100 µM		> 100 µM		> 100 µM		> 100 µM		> 100 µM		> 100 µM
COC(=O)[C@]12CC[C@@H](C)[C@H](C)[C@@H]1C1=CC[C@@H]3[C@@]4(C)C(C=O)=C[C@@](C)(COC(=O)c5ccco5)[C@@H]4[C@H](O)C[C@@]3(C)[C@]1(C)CC2	3.19 µM	12.7 µM	3.51 µM	16.2 µM	2.54 µM	7.58 µM	1.19 µM	2.59 µM	1.51 µM	3.09 µM	2.96 µM	9.96 µM	2.29 µM	7.5 µM	2.38 µM	28.2 µM	0.0918 µM	2.64 µM	2.04 µM	9.32 µM
Clc1nc(Cl)c2ncn(Cc3ccccc3Cn3cnc4c(Cl)nc(Cl)nc43)c2n1	11.2 µM	27.7 µM	6.9 µM	21.4 µM	1.42 µM	3.14 µM	2.06 µM	5.98 µM	1.47 µM	3.32 µM	2.6 µM	6.8 µM	1.99 µM	5.13 µM	2 µM	4.05 µM	2.96 µM	11.8 µM	2.93 µM	11 µM
COc1ccc(-c2noc(N)c2-c2cc(OC)c3c(c2)OCO3)cc1	1.24 µM	7.55 µM	3.13 µM	> 100 µM	1.45 µM	> 35.8 µM	2.4 µM	> 48.3 µM	0.616 µM	> 100 µM	0.405 µM	> 100 µM	1.98 µM	> 64.1 µM	24.3 µM	> 100 µM	6.31 µM	> 100 µM	7.8 µM	> 100 µM
Oc1ccc(Oc2cnc3ccccc3n2)cc1	37.2 µM	> 100 µM	> 100 µM	> 100 µM	24.2 µM	> 100 µM	> 100 µM	> 100 µM	> 100 µM	> 100 µM	> 100 µM	> 100 µM	41.4 µM	> 100 µM	60.3 µM	> 100 µM	> 100 µM	> 100 µM	> 100 µM	> 100 µM
Cc1c2c(C(N)=O)nccc2c(C)c2c1c1ccccc1n2Cc1ccccc1		46 µM		35.4 µM		62.6 µM		29 µM		44.2 µM		45.7 µM		62.9 µM		7.47 µM		> 100 µM		35.5 µM
O=C1c2ccccc2C(=O)c2c(NCCN=Cc3ccccc3O)cccc21	1.87 µM	6.67 µM	4.69 µM	14.4 µM	1.43 µM	3.88 µM	3.64 µM	15.3 µM	4.03 µM	16.7 µM	2.47 µM	> 45.1 µM	3.33 µM	> 30.5 µM	2.79 µM	> 22.9 µM	3.21 µM	10.4 µM	1.99 µM	6.17 µM
CS(=O)(=O)CS(=O)(=O)OCCCl		1350 µM		1640 µM		687 µM		661 µM		1090 µM		3120 µM		629 µM		1040 µM		1510 µM		1280 µM
NC(=S)N/N=C1\CCCC\C1=C/c1ccccc1		> 100 µM		> 100 µM		> 100 µM		> 100 µM		> 100 µM		> 100 µM		84.4 µM		> 100 µM		> 100 µM		> 100 µM
Cn1c(=S)c2[nH]c(SCCCc3ccccc3)nc2n(C)c1=O		49.1 µM		72 µM		49.8 µM		> 100 µM		> 100 µM		> 100 µM		> 100 µM		> 100 µM		> 100 µM		78.9 µM
COc1ccc(-c2cc(Nc3ccnc(N4CCOCC4)n3)on2)cc1	0.343 µM	2.41 µM	0.224 µM	12.1 µM	0.267 µM	> 34.5 µM	0.081 µM	13 µM	0.0645 µM	13 µM	0.047 µM	20.9 µM	0.766 µM	25.5 µM	1.72 µM	18.5 µM	4.1 µM	19.9 µM	10.9 µM	24.9 µM
Cc1c(Cl)cccc1NC(=O)c1cccc([N+](=O)[O-])c1O		45.9 µM		> 72.1 µM		34.7 µM		40 µM		> 100 µM		> 82.7 µM		46.7 µM		> 70.1 µM		> 77 µM		> 100 µM
CNC(C)[C@H]1CCC2C3CC=C4C(=O)[C@@H](NC(=O)C=C(C)C)CC[C@]4(C)C3CC[C@@]21C (stereo not given in full)	1.3 µM	8.26 µM	2.46 µM	6.82 µM	1.77 µM	7.8 µM	1.09 µM	2.53 µM	1.14 µM	2.89 µM	0.478 µM	2.19 µM	1.27 µM	3.89 µM	2.22 µM	17.9 µM	1.69 µM	3.3 µM	2.89 µM	10.4 µM
